Results from the supplement of paper PMC10307832.

How the values were obtained:
Assay in all cases: relative viability (nuclei count vs DMSO), 5 days (fraction); higher = more cells survive
[1] = compound: COc1nc(N)nc2c1ncn2[C@@H]1O[C@H](CO)[C@@H](O)[C@@H]1O [Nelarabine] + NC(=O)Nc1cc(-c2cccc(F)c2)sc1C(=O)N[C@H]1CCCNC1 [AZD7762] (partner 0.2 µM)
Procedure, shortened: (§1)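 For relative viability, nuclei counts in treated wells were divided by those in vehicle wells. Lung cancer cell lines had been pin-tool dosed in 1536-well plates the day after seeding and cultured for 5 days, then fixed and stained in one step (final 0.05% Triton X-100, 1% formaldehyde, 1 ug/ml Hoechst) and imaged at 4×. Doses were one drug alone or a fixed anchor-drug dose plus five library-drug doses (not always all listed) in √10 steps, and values are duplicate-plate medians.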

[2] = compound: COc1nc(N)nc2c1ncn2[C@@H]1O[C@H](CO)[C@@H](O)[C@@H]1O [Nelarabine] + CC(=O)Nc1cccc(-n2c(=O)n(C3CC3)c(=O)c3c(Nc4ccc(I)cc4F)n(C)c(=O)c(C)c32)c1 [Trametinib] (partner 0.02 µM)
Procedure, shortened: as §1

[3] = compound: C=CCn1c(=O)c2cnc(Nc3ccc(N4CCN(C)CC4)cc3)nc2n1-c1cccc(C(C)(C)O)n1 [Adavosertib] + CS(=O)(=O)N1CCN(Cc2cc3nc(-c4cccc5[nH]ncc45)nc(N4CCOCC4)c3s2)CC1 [Pictilisib] (partner 1 µM)
Procedure, shortened: as §1

[4] = compound: C=CCn1c(=O)c2cnc(Nc3ccc(N4CCN(C)CC4)cc3)nc2n1-c1cccc(C(C)(C)O)n1 [Adavosertib] + Nc1ncn([C@H]2C[C@H](O)[C@@H](CO)O2)c(=O)n1 [Decitabine] (partner 2 µM)
Procedure, shortened: as §1

Cell Line	relative viability ([1]; first compound 0.01 µM)	relative viability ([1]; first compound 0.03162 µM)	relative viability ([1]; first compound 0.1 µM)	relative viability ([1]; first compound 0.3162 µM)	relative viability ([1]; first compound 1 µM)	relative viability ([2]; first compound 0.01 µM)	relative viability ([2]; first compound 0.03162 µM)	relative viability ([2]; first compound 0.1 µM)	relative viability ([2]; first compound 0.3162 µM)	relative viability ([2]; first compound 1 µM)	relative viability ([3]; first compound 0.01 µM)	relative viability ([3]; first compound 0.03162 µM)	relative viability ([3]; first compound 0.1 µM)	relative viability ([3]; first compound 0.3162 µM)	relative viability ([4]; first compound 0.01 µM)	relative viability ([4]; first compound 0.03162 µM)	relative viability ([4]; first compound 0.1 µM)	relative viability ([4]; first compound 0.3162 µM)
NCI-H647	0.554	0.294	0.563	0.58	0.431	0.584	0.423	0.537	0.548	0.502	0.453	0.471	0.405	0.318	0.432	0.455	0.456	0.322
NCI-H2347	0.915	0.658	0.718	0.506	0.769	0.338	0.3	0.307	0.304	0.27	0.567	0.61	0.297	0.762	0.637	0.595	0.65	0.621
NCI-H1395	0.386	0.419	0.388	0.406	0.39	1.12	1.1	0.946	1.05	1.12	0.545	0.546	0.596	0.635	0.702	0.754	0.781	0.62
NCI-H522	0.844	1.02	0.813	0.86	0.949	0.82	1.03	0.662	0.726	0.742	–	–	–	–	0.691	0.692	0.776	0.745
NCI-H2087	1.72	1.42	1.37	1.51	1.21	0.181	0.167	0.196	0.245	0.202	0.86	0.947	0.833	0.923	0.24	0.347	0.276	0.277
EPLC-272H	0.196	0.209	0.305	0.247	0.297	0.293	0.307	0.317	0.274	0.293	0.277	0.414	0.303	0.295	0.355	0.344	0.448	0.308
NCI-H838	1.04	0.847	0.955	1	0.957	0.572	0.586	0.473	0.621	0.575	0.446	0.411	0.449	0.485	0.516	0.53	0.612	0.497
NCI-H661	–	–	–	–	–	0.651	0.718	0.628	0.668	0.756	0.33	0.415	0.352	0.322	0.595	0.577	0.489	0.4
NCI-H2170	1.15	0.869	0.843	0.932	0.709	1.26	0.804	0.997	0.944	0.911	0.345	0.308	0.264	0.31	0.426	0.452	0.5	0.429
